According to patent publication US20060030537A1, “Ceramide kinase and uses thereof” (priority 2004, published 2006):

Key:
ceramide kinase mRNA = test: RT-PCR of ceramide kinase mRNA in A549 cells; assay type: cell-based, human; details: 26 hours after transfection, normalized to 18s ribosomal RNA
Method: FIGS. 6A-6B. Ceramide kinase RNAi downregulates endogenous ceramide kinase activity and mRNA levels. FIG. 6A. The effect of ceramide kinase RNAi on endogenous ceramide kinase activity. A549 cells (5×10^4) were transfected with the 21-nucleotide duplexes for ceramide kinase or scrambled control sequence. Following the 4 hour transfection, cells incubated in normal growth media for 26 hours. Cells were then washed, lysed in assay buffer, and assayed for ceramide kinase activity. Data are presented as % control ceramide kinase activity with control RNAi (Control) or ceramide kinase RNAi (CerK RNAi). Data are representative of three separate determinations on two separate occasions. FIG. 6B. The effect of ceramide kinase RNAi on the mRNA levels of ceramide kinase. Following the same procedure as outlined in FIG. 6A, total RNA was extracted and analyzed via logarithmic reverse-transcriptase polymerase chain reaction for human ceramide kinase and 18s ribosomal RNA. Data are presented as percent control after the densitometry of ceramide kinase mRNA was normalized to 18s ribosomal RNA levels with control RNAi (Control) or ceramide kinase RNAi (CerK RNAi). Data are representative of three separate determinations on two separate occasions. […]

A549 cells [1] = test: Quantification of arachidonic acid (AA) release in A549 cells; assay type: cell-based
Method: (§1) Cell Culture: A549 lung adenocarcinoma cells (epithelial-derived) were grown in low glucose DMEM (Invitrogen) supplemented with L-glutamine, 10% (v/v) fetal bovine serum (Invitrogen), 200 U/ml of penicillin G sodium, and 200 μg/ml of streptomycin sulfate. Cells were maintained under 80% confluency and standard incubator conditions (humidified atmosphere, 95% air, 5% CO2, 370 C). For treatment, cells were incubated for 2 hours in low glucose DMEM (Invitrogen) supplemented with L-glutamine, 2% (v/v) fetal bovine serum (Invitrogen), 200 U/ml of penicillin G sodium, and 200 μg/ml of streptomycin sulfate prior to the addition of agonist.
Quantification of arachidonic acid (AA) release: A549 cells (5×10^4) were labeled overnight with 5 μCi/mL [^3H]-AA (5 nM) (NEN). Cells were washed and incubated in DMEM supplemented with 2% fetal bovine serum for 2 hours. Following treatment, media was transferred to 1.5 mL polypropylene tubes, centrifuged at 10,000×g, and ^3H-AA cpm determined by scintillation counting. Results were controlled for equivalent number of cells quantified by MTT assay as described (Chalfant, C. E., Rathman, K., Pinkerman, R. L., Wood, R. E., Obeid, L. M., Ogretmen, B., and Hannun, Y. A. (2002) J. Biol. Chem. 277, 12587-12595) and by verification of total AA labeling by scintillation counting. For the experiments in FIG. 4, purified SMase D was obtained from Dr. Alfred H. Merrill, Jr., and SMase C (purified from Bacillus cereus) was obtained commercially from Sigma.
RNAi design and transfections: Knock-downs of ceramide kinase were performed essentially as described using sequence specific siRNA reagents (http:www.mpibpc.gwdg.de/abteilungen/100/105/sirna.html) (Lassus, P., Opitz-Araya, X., and Lazebnik, Y. (2002) Science 297, 1352-1354) using human ceramide kinase RNAi starting 142 nucleotides from start codon ([…]dTd (SEQ ID NO: 3) and […]dTd (SEQ ID NO:4)). All sequences were evaluated against the database using the NIH blast program to test for specificity (Xeragon, A Qiagen Company). A549 cells (3×10^4) were transfected with the 21-nucleotide duplexes using OligofectAMINE (Invitrogen) as recommended by the manufacturer. Following the 4 hour transfection, cells were treated and assayed for AA release or PGE2 synthesis at 26 hours post-transfection.

A549 cells [2] = test: Quantification of prostaglandin E2 synthesis in A549 cells (EIA); assay type: cell-based; details: compared with inhibition of AA release
Method: as §1
Quantification of prostaglandin E2 and thromboxane B2 synthesis: For measurement of PGE2 and TXB2 levels, aliquots of media were taken at indicated time points and assayed according to manufacturer's instructions using the prostaglandin E2 and thromboxane B2 monoclonal EIA Kit from Cayman Chemical. Briefly, media containing PGE2 or TXB2 competes with PGE2 or TXB2 acetylcholinesterase conjugate for a limited amount of monoclonal antibody. The antibody-PGE2 or -TXB2 conjugate binds to a goat-anti-mouse antibody previously attached to the 96-well plate. The plate is washed to remove unbound reagents and then the substrate for acetylcholinesterase is provided. […] Results were controlled for equivalent number of cells quantified by MTT assay. […]

L929 fibroblasts = test: PGE2 synthesis in L929 fibroblasts; assay type: cell-based; details: L929 fibroblasts
Method: FIGS. 3A-3B. FIG. 3A. The effects of ceramide-1-phosphate on TXB2 synthesis. A549 cells (1×10^5) were treated with D-e-C16 ceramide-1-phosphate (1 μM) solubilized in 2% dodecane/98% ethanol (final concentration in treatments was 0.002% dodecane/0.098% ethanol (EtOH)) for the indicated times. The results are presented as % control of TXB2 controlled for equivalent number of cells by MTT assay. Data are representative of 3 separate determinations on 2 separate occasions. FIG. 3B. The effects of ceramide-1-phosphate on AA release and PGE2 synthesis in L929 fibroblasts. L929 cells (5×10^4) were labeled overnight with 5 μCi/mL [^3H]-arachidonic acid (5 nM). Cells were washed and placed in DMEM supplemented with 2% fetal bovine serum for two hours. Cells were then treated with 2.5 μM D-e-C16 ceramide-1-phosphate (solubilized in 98% ethanol/2% dodecane) for the indicated times. […]
Quantification of prostaglandin E2 and thromboxane B2 synthesis: For measurement of PGE2 and TXB2 levels, aliquots of media were taken at indicated time points and assayed according to manufacturer's instructions using the prostaglandin E2 and thromboxane B2 monoclonal EIA Kit from Cayman Chemical. […] Results were controlled for equivalent number of cells quantified by MTT assay.

A549 cells [3] = assay type: cell-based

For “ceramide kinase RNAi: 21-nucleotide duplex, human ceramide kinase RNAi starting 142 nucleotides from start codon (SEQ ID NO: 3 and 4) (chain 1 UGCCUGCUCUGUGCCUGUATT; chain 2 UACAGGCACAGAGCAGGCATT; chemistry not given here)”, the “decrease of ceramide kinase mRNA levels” value (ceramide kinase mRNA) was 73%, the “inhibition of AA release in response to A23187” value (A549 cells [1]; A23187 1 μg/mL, 26 hours post-transfection) was 72% and the “AA release in response to C-1-P treatment” value (A549 cells [1]; C-1-P 2.5 μM for 5 hours) was “no effect”. The “inhibition of AA release in response to IL-1β” value (A549 cells [1]; IL-1β 2.5 ng/mL for 4 hours, 26 hours post-transfection) was 78%, the IC50 (A549 cells [1]; IL-1β or A23187, read-out: IC50 of inhibition of agonist-induced AA release) was about 0.03 µM and the “inhibition of PGE2 synthesis in response to IL-1β and A23187” value (A549 cells [2]) was “to the same extent”. For the same substance, the “inhibition of PGE2 synthesis in response to IL-1β” value (L929 fibroblasts) was “over 60%” and the “effects on cell number” value (A549 cells [3]) was “without effects”.
